# Measurements from patent US20200392116A1, “SUBSTITUTED HETEROCYCLES AS c-MYC TARGETING AGENTS” (NORTHWESTERN UNIVERSITY, priority 2019, published 2020).
# Where two headings read alike, the source gives them in different places.
# Legend:
# [1] = Potency code of Table 2 (assay not stated)
# [2] = In vitro metabolism with mouse liver microsomes; format: in vitro ADME; conditions: % remaining of compound after 60 min treatment with mouse liver microsomes
# Procedure: In vitro metabolism of NUCC-176242 and NUCC-176248 were tested using mouse liver microsomes and a mouse S9 fraction. (See FIG. 9).
# [3] = Plasma protein binding (mouse); format: in vitro ADME
# [4] = system: MYC transcriptional activity (c-Myc E-box-luciferase reporter, MycCap cells); assay: MYC E-box luciferase reporter assay; format: cell-based; conditions: Mus musculus, Myc-CaP
# Procedure: To test the compounds, we evaluated the in silico hits in a MYC E-Box luciferase reporter assay to measure the effects of these compounds (referred to as Min-1 to Min-32) on MYC transcriptional activity. […] (See FIG. 2).
# MycCap cells stably expressing luciferase with CMV promoter (MycCap-luc) or c-Myc E-box-luciferase reporter (MycCap Ebox-luc) were plated at 10000 cells per well in 96 well white-wall plate. Serial dilutions of 361 were treated next day. At 4 hours of treatment, luminescence signal was determined immediately after adding 150 μg/ml of Luciferin to the well. (See FIG. 12).
# CMV reporter = CMV reporter assay (control reporter beside the Ebox reporter); format: cell-based
# [5] = given as numeric bound, read-out: Ebox reporter: IC50
# [6] = class symbols, read-out: Ebox reporter: IC50
# [7] = class symbols, read-out: Eboc reporter IC50
smiles,measurement,setting,value
Oc1cc(OCc2ccc(Cl)cc2)ccc1-c1n[nH]c(C(F)(F)F)c1Oc1ccccc1Cl [NUCC-0196342],Potency code,[1],++++ (<10 ++++)
same,MLM % at 60 min,[2],87.4%
Cn1nc(C(F)(F)F)cc1-c1ccc(OCc2ccc(Cl)cc2)c(-c2cc(C(F)(F)F)cc(C(F)(F)F)c2)c1O [NUCC-0196361],Potency code,[1],++++ (<10 ++++)
same,MLM % at 60 min,[2],72.9%
same,fraction unbound,[3],< 0.001
Oc1c(-c2cc(C(F)(F)F)[nH]n2)ccc(OCc2ccc(Cl)cc2)c1-c1ccccc1Cl [NUCC-0196363],Potency code,[1],++++ (<10 ++++)
same,MLM % at 60 min,[2],88.6%
COc1cccc(-c2c(-c3ccc(OCc4ccc(Cl)cc4)cc3O)n[nH]c2C(F)(F)F)c1 [NUCC-0198309],Potency code,[1],++++ (<10 ++++)
same,MLM % at 60 min,[2],74%
Cn1nc(C(F)(F)F)cc1-c1ccc(OCc2ccc(Cl)cc2)c(-c2cccc(C#N)c2)c1O [NUCC-0198399],Potency code,[1],++++ (<10 ++++)
same,MLM % at 60 min,[2],80.3%
CCc1c(OCc2ccc(Cl)cc2)ccc(-c2cc(C(F)(F)F)n[nH]2)c1O [NUCC-0200739],Potency code,[1],+ (>40 +)
same,MLM % at 60 min,[2],46.4%
CCOC(=O)c1cc(-c2ccc(OCc3ccc(Cl)cc3)c(-c3cc(C(F)(F)F)cc(C(F)(F)F)c3)c2O)n[nH]1 [NUCC-0200972],Potency code,[1],+ (>40 +)
same,MLM % at 60 min,[2],60.3%
same,fraction unbound,[3],< 0.001
Cn1nc(C(F)(F)F)cc1-c1ccc(OCc2ccc(Cl)cc2)cc1C=O [NUCC-0200976],Potency code,[1],+ (>40 +)
same,MLM % at 60 min,[2],21.8%
same,fraction unbound,[3],< 0.001
Oc1c(-c2cc(C(F)(F)F)n[nH]2)ccc(OCCN2CCCC2)c1-c1cc(C(F)(F)F)cc(C(F)(F)F)c1 [NUCC-0201032],Potency code,[1],+ (>40 +)
same,MLM % at 60 min,[2],30.5%
same,fraction unbound,[3],< 0.001
CCCCCCOc1ccc(-c2cc(C(F)(F)F)n[nH]2)c(O)c1-c1cc(C(F)(F)F)cc(C(F)(F)F)c1 [NUCC-0201196],Potency code,[1],+++ (10-30 +++)
same,MLM % at 60 min,[2],66.6%
CCCCCCOc1ccc(-c2cc(C(F)(F)F)nn2C)c(O)c1-c1cncc(C#N)c1 [NUCC-0201207],Potency code,[1],+++ (10-30 +++)
same,MLM % at 60 min,[2],52.7%
CCCCOc1ccc(-c2cc(C(F)(F)F)n(C)n2)c(O)c1-c1cncc(C(F)(F)F)c1 [NUCC-0201209],Potency code,[1],+ (>40 +)
same,MLM % at 60 min,[2],10.3%
Oc1c(-c2cc(C(F)(F)F)[nH]n2)ccc(Oc2ccc(Cl)cc2)c1-c1cc(C(F)(F)F)cc(C(F)(F)F)c1 [NUCC-0201223],Potency code,[1],++++ (<10 ++++)
same,MLM % at 60 min,[2],75.8%
Cn1nc(-c2ccc(N(Cc3ccc(Cl)cc3)C(=O)c3ccc(F)c(F)c3)cc2O)cc1C(F)(F)F [NUCC-0202707],IC50,[4]; [5],> 50 µM
same,IC50,CMV reporter,> 50 µM
Cn1nc(-c2ccc(N(Cc3ccc(Cl)cc3)C(=O)c3ccc(C(F)(F)F)cc3Cl)cc2O)cc1C(F)(F)F [NUCC-0202708],IC50,[4]; [5],> 50 µM
same,IC50,CMV reporter,> 50 µM
Cn1nc(C(F)(F)F)cc1-c1ccc(N(Cc2ccc(Cl)cc2)C(=O)c2ccc(Cl)cc2C(F)(F)F)cc1O [NUCC-0202709],IC50,[4]; [6],5 to 10 µM
same,IC50,CMV reporter,> 50 µM
Cn1nc(-c2ccc(N(Cc3ccc(Cl)cc3)C(=O)c3ccc(Cl)cc3C(F)(F)F)cc2O)cc1C(F)(F)F [NUCC-0202710],IC50,[4]; [5],> 50 µM
same,IC50,CMV reporter,> 50 µM
Cn1nc(C(F)(F)F)cc1-c1ccc(N(Cc2ccc(Cl)cc2)C(=O)c2ccc(F)cc2)cc1O [NUCC-0202711],IC50,[4]; [6],5 to 10 µM
same,IC50,CMV reporter,> 50 µM
Cn1nc(C(F)(F)F)cc1-c1ccc(N(Cc2ccc(Cl)cc2)C(=O)c2ccccc2Cl)cc1O [NUCC-0202712],IC50,[4]; [6],10 to 50 µM
same,IC50,CMV reporter,> 50 µM
Cn1nc(C(F)(F)F)cc1-c1ccc(N(Cc2ccc(Cl)cc2)C(=O)c2ccc(C(F)(F)F)cc2)cc1O [NUCC-0202713],IC50,[4]; [6],5 to 10 µM
same,IC50,CMV reporter,> 50 µM
Cn1nc(-c2ccc(N(Cc3ccc(Cl)cc3)C(=O)c3ccc(C(F)(F)F)cc3)cc2O)cc1C(F)(F)F [NUCC-0202714],IC50,[4]; [5],> 50 µM
same,IC50,CMV reporter,> 50 µM
Cn1nc(C(F)(F)F)cc1-c1ccc(N(Cc2ccc(Cl)cc2)C(=O)c2ccccc2F)cc1O [NUCC-0202715],IC50,[4]; [6],5 to 10 µM
same,IC50,CMV reporter,> 50 µM
Cn1nc(-c2ccc(N(Cc3ccc(Cl)cc3)C(=O)c3ccccc3F)cc2O)cc1C(F)(F)F [NUCC-0202716],IC50,[4]; [5],> 50 µM
same,IC50,CMV reporter,> 50 µM
COc1ccc(C(=O)N(Cc2ccc(Cl)cc2)c2ccc(-c3cc(C(F)(F)F)nn3C)c(O)c2)cc1 [NUCC-0202717],IC50,[4]; [6],5 to 10 µM
same,IC50,CMV reporter,> 50 µM
COc1ccc(C(=O)N(Cc2ccc(Cl)cc2)c2ccc(-c3cc(C(F)(F)F)n(C)n3)c(O)c2)cc1 [NUCC-0202718],IC50,[4]; [5],> 50 µM
same,IC50,CMV reporter,> 50 µM
Cn1nc(-c2ccc(N(Cc3ccc(Cl)cc3)C(=O)c3ccccc3C(F)(F)F)cc2O)cc1C(F)(F)F [NUCC-0202719],IC50,[4]; [5],> 50 µM
same,IC50,CMV reporter,> 50 µM
Cn1nc(C(F)(F)F)cc1-c1ccc(N(Cc2ccc(Cl)cc2)C(=O)c2ccc(C(F)(F)F)cc2Cl)cc1O [NUCC-0202720],IC50,[4]; [6],5 to 10 µM
same,IC50,CMV reporter,> 50 µM
Cn1nc(-c2ccc(N(Cc3ccc(Cl)cc3)C(=O)c3cccc(S(C)(=O)=O)c3)cc2O)cc1C(F)(F)F [NUCC-0202721],IC50,[4]; [5],> 50 µM
same,IC50,CMV reporter,> 50 µM
Cn1nc(-c2ccc(N(Cc3ccc(Cl)cc3)C(=O)c3cncc(C#N)c3)cc2O)cc1C(F)(F)F [NUCC-0202722],IC50,[4]; [5],> 50 µM
same,IC50,CMV reporter,> 50 µM
Cn1nc(C(F)(F)F)cc1-c1ccc(N(Cc2ccc(Cl)cc2)C(=O)c2ccccc2C(F)(F)F)cc1O [NUCC-0202723],IC50,[4]; [6],5 to 10 µM
same,IC50,CMV reporter,> 50 µM
Cn1nc(C(F)(F)F)cc1-c1ccc(N(Cc2ccc(Cl)cc2)C(=O)c2cncc(C#N)c2)cc1O [NUCC-0202724],IC50,[4]; [6],5 to 10 µM
same,IC50,CMV reporter,> 50 µM
Cn1nc(-c2ccc(N(Cc3ccc(Cl)cc3)C(=O)c3ccc4nccn4c3)cc2O)cc1C(F)(F)F [NUCC-0202725],IC50,[4]; [6],10 to 50 µM
same,IC50,CMV reporter,> 50 µM
Cn1nc(C(F)(F)F)cc1-c1ccc(CNc2ccc(Cl)c(C(F)(F)F)c2)cc1O [NUCC-0202980],IC50,[4]; [7],10 to 50 µM
same,IC50,CMV reporter; class symbols,10 to 50 µM
Cn1nc(-c2ccc(CNc3ccc(Cl)c(C(F)(F)F)c3)cc2O)cc1C(F)(F)F [NUCC-0202981],IC50,[4]; [7],10 to 50 µM
same,IC50,CMV reporter; class symbols,> 50 µM
Cn1nc(C(F)(F)F)cc1-c1ccc(C(=O)Nc2ccc(Cl)c(C(F)(F)F)c2)cc1O [NUCC-0202984],IC50,[4]; [7],< 5 µM
same,IC50,CMV reporter; class symbols,10 to 50 µM
Cn1nc(-c2ccc(C(=O)Nc3ccc(Cl)c(C(F)(F)F)c3)cc2O)cc1C(F)(F)F [NUCC-0202985],IC50,[4]; [7],> 50 µM
same,IC50,CMV reporter; class symbols,> 50 µM
Oc1c(-c2cc(C(F)(F)F)n[nH]2)c(Cl)cc(OCc2ccc(Cl)cc2)c1-c1ccc(Cl)c(C(F)(F)F)c1 [NUCC-0202986],IC50,[4]; [7],< 5 µM
same,IC50,CMV reporter; class symbols,10 to 50 µM
Cn1nc(C(F)(F)F)cc1-c1c(Cl)cc(OCc2ccc(Cl)cc2)c(-c2ccc(Cl)c(C(F)(F)F)c2)c1O [NUCC-0202987],IC50,[4]; [7],< 5 µM
same,IC50,CMV reporter; class symbols,> 50 µM
Cn1nc(-c2c(Cl)cc(OCc3ccc(Cl)cc3)c(-c3ccc(Cl)c(C(F)(F)F)c3)c2O)cc1C(F)(F)F [NUCC-0202988],IC50,[4]; [7],> 50 µM
same,IC50,CMV reporter; class symbols,> 50 µM
CN(C(=O)c1ccc(-c2cc(C(F)(F)F)n[nH]2)c(O)c1)c1ccc(Cl)c(C(F)(F)F)c1 [NUCC-0202989],IC50,[4]; [7],10 to 50 µM
same,IC50,CMV reporter; class symbols,10 to 50 µM
CN(C(=O)c1ccc(-c2cc(C(F)(F)F)nn2C)c(O)c1)c1ccc(Cl)c(C(F)(F)F)c1 [NUCC-0202990],IC50,[4]; [7],10 to 50 µM
same,IC50,CMV reporter; class symbols,> 50 µM
CN(C(=O)c1ccc(-c2cc(C(F)(F)F)n(C)n2)c(O)c1)c1ccc(Cl)c(C(F)(F)F)c1 [NUCC-0202991],IC50,[4]; [7],10 to 50 µM
same,IC50,CMV reporter; class symbols,> 50 µM
O=C(Nc1ccc(Cl)c(C(F)(F)F)c1)c1ccc(-c2cc(C(F)(F)F)n[nH]2)c(O)c1 [NUCC-0202992],IC50,[4]; [7],5 to 10 µM
same,IC50,CMV reporter; class symbols,10 to 50 µM
Oc1cc(CNc2ccc(Cl)c(C(F)(F)F)c2)ccc1-c1cc(C(F)(F)F)n[nH]1 [NUCC-0202993],IC50,[4]; [7],5 to 10 µM
same,IC50,CMV reporter; class symbols,10 to 50 µM
